What was measured:
Type in all cases: in vivo
[1] = system: galium (catchweed bedstraw, Galium aparine); assay: Test A postemergence, galium; settings: 0 to 100 scale
Method in brief: (§1)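 Plants grown in a loam soil and sand blend were treated either preemergence by directed soil spray or postemergence when 2 to 10 cm tall (one- to two-leaf stage). Formulation: non-phytotoxic solvent mixture with surfactant. Greenhouse hold ~10 d, then visual injury assessment on a 0–100 scale.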

[2] = system: barnyardgrass (Echinochloa crus-galli); assay: Test A preemergence, barnyardgrass; settings: 0 to 100 scale; for Barnyardgrass plant response rating: 125 g ai/ha, 0 is no effect, 100 is complete control; for Plant response rating, Barnyardgrass: 500 g ai/ha
Method in brief: as §1

[3] = system: foxtail, giant (Setaria faberii); assay: Test A preemergence, giant foxtail; settings: 0 to 100 scale; for Foxtail, Giant plant response rating: 125 g ai/ha, 0 is no effect, 100 is complete control; for Plant response rating, Foxtail, Giant: 500 g ai/ha
Method in brief: as §1

[4] = system: pigweed (Amaranthus retroflexus); assay: Test A postemergence, pigweed; settings: 0 to 100 scale
Method in brief: as §1

[5] = system: wheat (Triticum aestivum); assay: Test A postemergence, wheat; settings: 0 to 100 scale
Method in brief: as §1

[6] = system: ryegrass, Italian (Lolium multiflorum); assay: Test A preemergence, Italian ryegrass; settings: 0 to 100 scale; for Ryegrass, Italian plant response rating: 125 g ai/ha, 0 is no effect, 100 is complete control; for Plant response rating, Ryegrass, Italian: 500 g ai/ha
Method in brief: as §1

[7] = system: pigweed (Amaranthus retroflexus); assay: Test A preemergence, pigweed; settings: 0 to 100 scale; for Pigweed plant response rating: 125 g ai/ha, 0 is no effect, 100 is complete control; for Plant response rating, Pigweed: 500 g ai/ha
Method in brief: as §1

[8] = system: ryegrass, Italian (Lolium multiflorum); assay: Test A postemergence, Italian ryegrass; settings: 0 to 100 scale
Method in brief: as §1

[9] = system: ragweed (common ragweed, Ambrosia elatior); assay: Test A postemergence, ragweed; settings: 0 to 100 scale
Method in brief: as §1

[10] = system: kochia (Kochia scoparia); assay: Test A preemergence, kochia; settings: 0 to 100 scale; for Kochia plant response rating: 125 g ai/ha, 0 is no effect, 100 is complete control; for Plant response rating, Kochia: 500 g ai/ha
Method in brief: as §1

[11] = system: corn (Zea mays); assay: Test A postemergence, corn; settings: 0 to 100 scale
Method in brief: as §1

[12] = system: rice (Oryza sativa); assay: Test B flooded paddy test, rice; settings: Flood, 250 g ai/ha, applied to paddy water, 2-leaf stage, visual evaluation after 13 to 15 d
Method in brief: (§2)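 Rating: 0 = no effect, 100 = complete control, visual, relative to untreated plants. Conditions: 2-leaf stage, 3 cm flood kept constant, compound put directly into water, 13–15 d greenhouse.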

[13] = system: ducksalad (Heteranthera limosa); assay: Test B flooded paddy test, ducksalad; settings: Flood, 250 g ai/ha, applied to paddy water, 2-leaf stage, visual evaluation after 13 to 15 d
Method in brief: as §2

[14] = system: blackgrass (Alopecurus myosuroides); assay: Test A postemergence, blackgrass; settings: 0 to 100 scale
Method in brief: as §1

[15] = system: barnyardgrass (Echinochloa crus-galli); assay: Test B flooded paddy test, barnyardgrass; settings: Flood, 250 g ai/ha, applied to paddy water, 2-leaf stage, visual evaluation after 13 to 15 d
Method in brief: as §2

[16] = system: ragweed (common ragweed, Ambrosia elatior); assay: Test A preemergence, ragweed; settings: 0 to 100 scale; for Ragweed plant response rating: 125 g ai/ha, 0 is no effect, 100 is complete control; for Plant response rating, Ragweed: 500 g ai/ha
Method in brief: as §1

[17] = system: foxtail, giant (Setaria faberii); assay: Test A postemergence, giant foxtail; settings: 0 to 100 scale
Method in brief: as §1

[18] = system: sedge, umbrella (small-flower umbrella sedge, Cyperus difformis); assay: Test B flooded paddy test, umbrella sedge; settings: Flood, 250 g ai/ha, applied to paddy water, 2-leaf stage, visual evaluation after 13 to 15 d
Method in brief: as §2

[19] = system: barnyardgrass (Echinochloa crus-galli); assay: Test A postemergence, barnyardgrass; settings: 0 to 100 scale
Method in brief: as §1

[20] = system: kochia (Kochia scoparia); assay: Test A postemergence, kochia; settings: 0 to 100 scale
Method in brief: as §1

CC(COc1cc(F)c(F)c(F)c1)Nc1ncc(C(F)(F)F)c(N)n1 (stereo not drawn) [Compound 36]
Plant response rating, Galium ([1]; 125 g ai/ha): 0
Plant response rating, Galium ([1]; 500 g ai/ha): 0
Barnyardgrass plant response rating [2]: 0
Plant response rating, Barnyardgrass [2]: 0
Foxtail, Giant plant response rating [3]: 0
Plant response rating, Foxtail, Giant [3]: 0
Plant response rating, Pigweed ([4]; 125 g ai/ha): 0
Plant response rating, Pigweed ([4]; 500 g ai/ha): 0
Plant response rating, Wheat ([5]; 125 g ai/ha): 0
Plant response rating, Wheat ([5]; 500 g ai/ha): 0
Ryegrass, Italian plant response rating [6]: 0
Plant response rating, Ryegrass, Italian [6]: 0
Pigweed plant response rating [7]: 0
Plant response rating, Pigweed [7]: 0
Plant response rating, Ryegrass, Italian ([8]; 125 g ai/ha): 0
Plant response rating, Ryegrass, Italian ([8]; 500 g ai/ha): 0
Plant response rating, Ragweed ([9]; 125 g ai/ha): 0
Plant response rating, Ragweed ([9]; 500 g ai/ha): 0
Kochia plant response rating [10]: 70
Plant response rating, Kochia [10]: 30
Plant response rating, Corn ([11]; 125 g ai/ha): 10
Plant response rating, Corn ([11]; 500 g ai/ha): 0
Plant response rating, Rice (0 to 100 scale, 0 is no effect, 100 is complete control) [12]: 0
Plant response rating, Ducksalad (0 to 100 scale, 0 is no effect, 100 is complete control) [13]: 0
Plant response rating, Blackgrass ([14]; 125 g ai/ha): 0
Plant response rating, Blackgrass ([14]; 500 g ai/ha): 0
Plant response rating, Barnyardgrass (0 to 100 scale, 0 is no effect, 100 is complete control) [15]: 0
Ragweed plant response rating [16]: 0
Plant response rating, Ragweed [16]: 0
Plant response rating, Foxtail, Giant ([17]; 125 g ai/ha): 0
Plant response rating, Foxtail, Giant ([17]; 500 g ai/ha): 0
Plant response rating, Sedge, Umbrella (0 to 100 scale, 0 is no effect, 100 is complete control) [18]: 0
Plant response rating, Barnyardgrass ([19]; 125 g ai/ha): 0
Plant response rating, Barnyardgrass ([19]; 500 g ai/ha): 0
Plant response rating, Kochia ([20]; 125 g ai/ha): 0
Plant response rating, Kochia ([20]; 500 g ai/ha): 0

CC(COc1cccc(F)c1)Nc1ncc(C(F)(F)F)c(N)n1 (stereo not drawn) [Compound 37]
Plant response rating, Galium ([1]; 125 g ai/ha): 20
Plant response rating, Galium ([1]; 500 g ai/ha): 40
Barnyardgrass plant response rating [2]: 0
Plant response rating, Barnyardgrass [2]: 0
Foxtail, Giant plant response rating [3]: 0
Plant response rating, Foxtail, Giant [3]: 0
Plant response rating, Pigweed ([4]; 125 g ai/ha): 0
Plant response rating, Pigweed ([4]; 500 g ai/ha): 40
Plant response rating, Wheat ([5]; 125 g ai/ha): 0
Plant response rating, Wheat ([5]; 500 g ai/ha): 0
Ryegrass, Italian plant response rating [6]: 0
Plant response rating, Ryegrass, Italian [6]: 0
Pigweed plant response rating [7]: 50
Plant response rating, Pigweed [7]: 70
Plant response rating, Ryegrass, Italian ([8]; 125 g ai/ha): 0
Plant response rating, Ryegrass, Italian ([8]; 500 g ai/ha): 0
Plant response rating, Ragweed ([9]; 125 g ai/ha): 0
Plant response rating, Ragweed ([9]; 500 g ai/ha): 0
Kochia plant response rating [10]: 0
Plant response rating, Kochia [10]: 0
Plant response rating, Corn ([11]; 125 g ai/ha): 0
Plant response rating, Corn ([11]; 500 g ai/ha): 0
Plant response rating, Rice (0 to 100 scale, 0 is no effect, 100 is complete control) [12]: 0
Plant response rating, Ducksalad (0 to 100 scale, 0 is no effect, 100 is complete control) [13]: 0
Plant response rating, Blackgrass ([14]; 125 g ai/ha): 0
Plant response rating, Blackgrass ([14]; 500 g ai/ha): 0
Plant response rating, Barnyardgrass (0 to 100 scale, 0 is no effect, 100 is complete control) [15]: 0
Ragweed plant response rating [16]: 0
Plant response rating, Ragweed [16]: 100
Plant response rating, Foxtail, Giant ([17]; 125 g ai/ha): 0
Plant response rating, Foxtail, Giant ([17]; 500 g ai/ha): 0
Plant response rating, Sedge, Umbrella (0 to 100 scale, 0 is no effect, 100 is complete control) [18]: 0
Plant response rating, Barnyardgrass ([19]; 125 g ai/ha): 0
Plant response rating, Barnyardgrass ([19]; 500 g ai/ha): 0
Plant response rating, Kochia ([20]; 125 g ai/ha): 0
Plant response rating, Kochia ([20]; 500 g ai/ha): 0

Reference: patent US20220119354A1, “DIAMINO-SUBSTITUTED PYRIDINES AND PYRIMIDINES AS HERBICIDES” (FMC Corporation, priority 2019, published 2022)
